Reference: patent US20090111736A1, “Orally-Absorbed Solid Dose Formulation for Vancomycin” (SRI International, priority 2007, published 2009)
Where a name gives a salt, the structure may show the parent alone.

Tested on: rat jejunum
Assay: In vitro mucosal-to-serosal vancomycin transport, modified Ussing chambers, jejunum
Type: in vitro ADME
Settings: jejunum
From the text: We investigated regional variation in permeation of vancomycin (VCM) across various segments of rat intestine and colon in vitro by mounting isolated segments of rat intestine and colon between horizontal modified Ussing chambers. The effects of drug concentration and of addition of a p-glycoprotein inhibitor or permeation enhancer(s) as formulation additives on VCM permeation were also studied in vitro using segments of rat jejunum.
Methods: A modified Ussing system (Easy mount Ussing system, Physiological Instruments Inc., CA, Item # EM-CSYS-8) with eight sets of chambers was used for all in vitro studies; each set consisted of two parallel diffusion chambers, a heating block for temperature control, needle valves for gas flow adjustment and gas mixing, and Ag/AgCl voltage and current electrodes for measuring transepithelial voltage and for passing current.
Harvesting of required small intestinal or colon segments of a male rat was performed using experimental procedures described in the literature (Gotoh et al., J Biomol Screen (2005) 10:517-23). The harvested segments of small intestine or colon were mounted on sliders placed between the two horizontal chambers of a modified Ussing system.
VCM was dissolved in HEPES buffer pH 7.4 (Table 1) previously saturated with 100% O2 or HEPES buffer containing additives selected from permeation enhancer(s) and/or an efflux transport inhibitor (Table 2) to obtain predetermined concentrations of drug and additive(s).
Drug transport across epithelial membranes of harvested rat small intestine and colon segments, in mucosal-to-serosal (M-to-S) direction, was studied using modified Ussing Chambers. Aliquots of HEPES buffer (5 ml) were initially added to both the mucosal and serosal chambers and allowed to equilibrate for 20 minutes. The HEPES buffer in the mucosal chamber was replaced by a study sample containing VCM alone or VCM and selected additive(s) in HEPES buffer, e.g., 5 mg/mL of VCM dissolved in HEPES buffer containing 10% w/w Labrasol®. Aliquots of 0.5 mL buffer solutions were removed periodically from serosal chambers, and replaced with equal volumes of fresh warm (37±2° C.) HEPES buffer previously saturated with 100% O2. […]
Changes in transepithelial short-circuit current (in micro-Amps) and membrane resistance (in Ohms) as a function of time were monitored continuously during in vitro studies to serve as indicators of tissue viability and drug permeability, respectively. The buffer samples from the receptor chambers were analyzed for VCM content on a high pressure liquid chromatograph (HPLC; Hewlett Packard Model 1100 series).
The analysis of VCM samples was performed using a reverse phase gradient HPLC method, with a Hypersil BDS C18 column, 5 μm, 150×4.6 mm., mobile phase consisting of 5 mM potassium phosphate monobasic in water (pH 3) as solvent A and acetonitrile as solvent B at a flow rate of 1 ml/min (Farin et al., J Pharm Biomed Anal (1998) 18:367-72). The eluant was monitored by a UV/diode array detector at 280 nm.
To compare data obtained from different in vitro experiments, the apparent permeability coefficients were calculated using the equation: […]
Where dQ/dt is the linear appearance rate of mass in receiver compartment, C0 is the initial solute concentration in donor compartment, and A is the surface area (Luo et al., Drug Metab Dispos (2002) 30:763-70).

CN[C@H](CC(C)C)C(=O)N[C@H]1C(=O)N[C@@H](CC(N)=O)C(=O)N[C@H]2C(=O)N[C@H]3C(=O)N[C@H](C(=O)N[C@H](C(=O)O)c4cc(O)cc(O)c4-c4cc3ccc4O)[C@H](O)c3ccc(c(Cl)c3)Oc3cc2cc(c3O[C@@H]2O[C@H](CO)[C@@H](O)[C@H](O)[C@H]2O[C@H]2C[C@](C)(N)[C@H](O)[C@H](C)O2)Oc2ccc(cc2Cl)[C@H]1O [Vancomycin hydrochloride]
Ave. Cumulative Amt VCM Released (50 mg/ml in HEPES buffer without enhancer, 0.5 hr): 0.97 ± 1.37 µg
Ave. Cumulative Amt VCM Released (50 mg/ml in HEPES buffer without enhancer, 1.0 hr): 7.94 ± 5.19 µg
Ave. Cumulative Amt VCM Released (50 mg/ml in HEPES buffer without enhancer, 1.5 hr): 22.26 ± 4.61 µg
Ave. Cumulative Amt VCM Released (50 mg/ml in HEPES buffer without enhancer, 2.0 hr): 46.13 ± 1.25 µg
Ave. Cumulative Amt VCM Released (50 mg/ml in HEPES buffer without enhancer, 2.5 hr): 69.54 ± 4.20 µg
Ave. Cumulative Amt VCM Released (5% Gelucire ® 44/14 (w/w), 0.5 hr): 0.40 ± 0.79 µg
Ave. Cumulative Amt VCM Released (5% Gelucire ® 44/14 (w/w), 1.0 hr): 3.72 ± 0.40 µg
Ave. Cumulative Amt VCM Released (5% Gelucire ® 44/14 (w/w), 1.5 hr): 6.81 ± 1.07 µg
Ave. Cumulative Amt VCM Released (5% Gelucire ® 44/14 (w/w), 2.0 hr): 10.87 ± 1.53 µg
Ave. Cumulative Amt VCM Released (5% Gelucire ® 44/14 (w/w), 2.5 hr): 14.29 ± 2.36 µg
Ave. Cumulative Amt VCM Released (5% Gelucire ® 44/14 + 5% Labrasol ® (w/w), 0.5 hr): 0.81 ± 1.40 µg
Ave. Cumulative Amt VCM Released (5% Gelucire ® 44/14 + 5% Labrasol ® (w/w), 1.0 hr): 3.56 ± 0.25 µg
Ave. Cumulative Amt VCM Released (5% Gelucire ® 44/14 + 5% Labrasol ® (w/w), 1.5 hr): 6.63 ± 1.67 µg
Ave. Cumulative Amt VCM Released (5% Gelucire ® 44/14 + 5% Labrasol ® (w/w), 2.0 hr): 9.58 ± 1.81 µg
Ave. Cumulative Amt VCM Released (5% Gelucire ® 44/14 + 5% Labrasol ® (w/w), 2.5 hr): 13.78 ± 5.10 µg
Ave. Cumulative Amt VCM Released (5% Polysorbate-80 (w/w), 0.5 hr): 0.00 ± 0.00 µg
Ave. Cumulative Amt VCM Released (5% Polysorbate-80 (w/w), 1.0 hr): 2.33 ± 0.24 µg
Ave. Cumulative Amt VCM Released (5% Polysorbate-80 (w/w), 1.5 hr): 5.69 ± 1.64 µg
Ave. Cumulative Amt VCM Released (5% Polysorbate-80 (w/w), 2.0 hr): 10.15 ± 2.82 µg
Ave. Cumulative Amt VCM Released (5% Polysorbate-80 (w/w), 2.5 hr): 15.99 ± 3.24 µg
Ave. Cumulative Amt VCM Released (5% Polysorbate-80 + 5% w/w Labrasol ®, 0.5 hr): 0.00 ± 0.00 µg
Ave. Cumulative Amt VCM Released (5% Polysorbate-80 + 5% w/w Labrasol ®, 1.0 hr): 2.36 ± 0.16 µg
Ave. Cumulative Amt VCM Released (5% Polysorbate-80 + 5% w/w Labrasol ®, 1.5 hr): 3.85 ± 0.39 µg
Ave. Cumulative Amt VCM Released (5% Polysorbate-80 + 5% w/w Labrasol ®, 2.0 hr): 6.05 ± 0.80 µg
Ave. Cumulative Amt VCM Released (5% Polysorbate-80 + 5% w/w Labrasol ®, 2.5 hr): 10.12 ± 1.39 µg
Ave. Cumulative Amt VCM Released (5% TPGS ® + 5% Labrasol ® (w/w), 0.5 hr): 0.00 ± 0.00 µg
Ave. Cumulative Amt VCM Released (5% TPGS ® + 5% Labrasol ® (w/w), 1.0 hr): 1.26 ± 1.78 µg
Ave. Cumulative Amt VCM Released (5% TPGS ® + 5% Labrasol ® (w/w), 1.5 hr): 3.48 ± 1.13 µg
Ave. Cumulative Amt VCM Released (5% TPGS ® + 5% Labrasol ® (w/w), 2.0 hr): 6.40 ± 2.08 µg
Ave. Cumulative Amt VCM Released (5% TPGS ® + 5% Labrasol ® (w/w), 2.5 hr): 10.03 ± 3.20 µg
Papp value compared with VCM alone (5% w/w Labrasol® with 5% w/w Gelucire® 44/14): slightly higher than that of VCM alone
effect on M-to-S transport of VCM (5% w/w Labrasol® with 5% w/w Polysorbate 80): slightly reduced VCM transport
effect on M-to-S transport of VCM (5% w/w Labrasol® with 5% w/w Vitamin E TPGS®): slightly reduced VCM transport
Ave. Cumulative Amt VCM Released (10% Labrasol ® (w/w), 0.5 hr): 3.65 ± 1.22 µg
Ave. Cumulative Amt VCM Released (10% Labrasol ® (w/w), 1.0 hr): 3.72 ± 2.58 µg
Ave. Cumulative Amt VCM Released (10% Labrasol ® (w/w), 1.5 hr): 5.52 ± 1.36 µg
Ave. Cumulative Amt VCM Released (10% Labrasol ® (w/w), 2.0 hr): 7.48 ± 1.11 µg
Ave. Cumulative Amt VCM Released (10% Labrasol ® (w/w), 2.5 hr): 9.93 ± 1.23 µg
VCM transport compared with VCM alone or other excipients (10% w/w Labrasol®): lowest
effect on M-to-S transport of VCM (Gelucire® 44/14 at 5% w/w): enhanced M-to-S transport
Ave. Cumulative Amt VCM Released (HEPES only, no enhancer (enhancer / bile salt study), 0.5 hr): 0.00 ± 0.00 µg
Ave. Cumulative Amt VCM Released (HEPES only, no enhancer (enhancer / bile salt study), 1.0 hr): 2.16 ± 1.47 µg
Ave. Cumulative Amt VCM Released (HEPES only, no enhancer (enhancer / bile salt study), 1.5 hr): 4.13 ± 0.74 µg
Ave. Cumulative Amt VCM Released (HEPES only, no enhancer (enhancer / bile salt study), 2.0 hr): 8.28 ± 1.80 µg
Ave. Cumulative Amt VCM Released (HEPES only, no enhancer (enhancer / bile salt study), 2.5 hr): 14.45 ± 3.07 µg
Ave. Cumulative Amt VCM Released (No SD (sodium decanoate study), 0.5 hr): 0.00 ± 0.00 µg
Ave. Cumulative Amt VCM Released (No SD (sodium decanoate study), 1.0 hr): 0.00 ± 0.00 µg
Ave. Cumulative Amt VCM Released (No SD (sodium decanoate study), 1.5 hr): 0.00 ± 0.00 µg
Ave. Cumulative Amt VCM Released (No SD (sodium decanoate study), 2.0 hr): 1.43 ± 0.10 µg
Ave. Cumulative Amt VCM Released (No SD (sodium decanoate study), 2.5 hr): 2.15 ± 0.19 µg
effect on M-to-S transport of VCM (Polysorbate 80 at 5% w/w): enhanced M-to-S transport
